Assay results published in patent US20110251229A1 (priority 2007, published 2011).
Entries after “also recorded” stand apart in the source; their conditions may differ.

What was measured:
[1] = system: TLR4 mRNA; test: TLR4 mRNA expression in lumbar dorsal spinal cord after chronic intrathecal opioids; assay type: in vivo, rat; settings: 15 μg intrathecal once daily for 7 days, relative to GAPDH
[2] = system: HAPI microglial cell line; test: HAPI microglial cell line activation by LPS, mRNA; assay type: cell-based
Method: HAPI microglial cell line was used to examine the effects of (+)-naloxone on microglial activation by LPS. Whereas 100 ng/mL LPS produced elevations in mRNA for CD11b (microglial activation marker), interleukin (IL)-1b, and IL-6, 1 μM (+)-naloxone abolished each of these LPS-induced effects. See FIG. 20 (GAPDH=glyceraldehyde-3-phosphate-dehydrogenase).

[3] = system: morphine analgesia in rats; test: Potentiation of acute morphine analgesia, Hargreaves test; assay type: in vivo, rat
[4] = system: rats with chronic constriction injury of the sciatic nerve; test: Chronic constriction injury (CCI)-induced allodynia, von Frey test; settings: for reversal of CCI-induced allodynia: 60 mg/kg s.c.; for reversal of neuropathic pain: rat, in vivo; for reversal of established CCI-induced allodynia: delivery intrathecally or systemically
[5] = system: morphine-treated rats; test: Chronic systemic morphine & (+)-naloxone experiment (Hargreaves, precipitated withdrawal, weight); assay type: in vivo, rat
[6] = system: astrocyte (GFAP) and microglia (CD11b/c) activation markers; test: Glial activation markers (GFAP, CD11b/c) in L5 spinal cord of CCI rats, immunohistochemistry; assay type: in vivo, rat; settings: 60 μg/hr intrathecal across 4 days, vs vehicle; for CD11b/c expression: bilaterally; for GFAP expression in ipsilateral or contralateral dorsal horns: densitometry
Method: Following the final behavioral testing rats were transcardially perfused first with isotonic saline and then with fresh 4% paraformaldehyde/0.1 M phosphate buffer (4% PFA/PB, pH 7.4). After dissection and immersion post-fixation in 4% PFA/PB for an additional 24 hr, the lumbar spinal cords then dehydrated in 30% sucrose with 0.1% azide at 4° C. until slicing.
For immunohistochemistry, sections were treated to suppress endogenous peroxidase and to prevent staining of endogenous biotin. The sections were incubated in either primary mouse monoclonal anti-rat glial fibrillary acidic protein (GFAP) (1:500; to visualize astrocyte astrocyte activation; ICN Biomedicals, Costa Mesa, Calif.) or primary mouse monoclonal anti-rat OX-42 (1:500; to visualize microglial activation; BioSource, Camarillo, Calif.) for 24 hr at 4° C. The slides were then incubated in secondary biotinylated goat anti-mouse IgG antibody (1:500; Jackson ImmunoResearch, West Grove, Pa.) overnight at 4° C. Finally sections were reacted using the avidin-biotin complex procedure (ABC, Vector Elite kit; 1:100 in PBS-Triton; 2 hr; Vector laboratories, Burlingame, Calif.) and 3′,3′-diaminobenzidine (DAB; Sigma-Aldrich). Glucose oxidase (Sigma-Aldrich; type V-s; 0.02%) and beta-D-glucose (0.1%) were used to generate hydrogen peroxide. […] ammonium sulfate was added to the DAB solution (0.025% w/v) to intensify the reaction product. One series of sections was processed as described above except that the primary antibody was omitted from the incubation buffer (omission controls). The slides were dried overnight, cleared, and cover slipped.
Slides were viewed with an Olympus Vannox II bright-field microscope. Images were collected with a Cohu CCD camera coupled to an Apple PowerMac 7200 equipped with NIH Image software (version 1.60). Brightness and contrast were kept constant with the images not altered. The intensity of the light source was calibrated each day.
Representative sections (10×) of ipsilateral dorsal horns of neuropathic (CCI) rats treated intrathecally with 60 μg/hr (+)-naloxone ([…]), 60 μg/hr (−)-naloxone (FIG. 18F), and vehicle (FIG. 18G) are shown. […] Scale bar=500 μm.

[7] = molecular target: T1, human TLR4 (Homo sapiens, UniProt O00206); assay type: cell-based
T1 construct: host or cells: HEK 293

[8] = system: RAW264.7 mouse macrophage cell line expressing GFP-tagged Akt1 (TLR4 signaling); assay type: cell-based
[9] = about 20 μg co-administered with morphine intrathecally
[10] = 12 mg/day s.c. minipump with 6 mg/day morphine, 7 days

T1 sequence (O00206 24-839): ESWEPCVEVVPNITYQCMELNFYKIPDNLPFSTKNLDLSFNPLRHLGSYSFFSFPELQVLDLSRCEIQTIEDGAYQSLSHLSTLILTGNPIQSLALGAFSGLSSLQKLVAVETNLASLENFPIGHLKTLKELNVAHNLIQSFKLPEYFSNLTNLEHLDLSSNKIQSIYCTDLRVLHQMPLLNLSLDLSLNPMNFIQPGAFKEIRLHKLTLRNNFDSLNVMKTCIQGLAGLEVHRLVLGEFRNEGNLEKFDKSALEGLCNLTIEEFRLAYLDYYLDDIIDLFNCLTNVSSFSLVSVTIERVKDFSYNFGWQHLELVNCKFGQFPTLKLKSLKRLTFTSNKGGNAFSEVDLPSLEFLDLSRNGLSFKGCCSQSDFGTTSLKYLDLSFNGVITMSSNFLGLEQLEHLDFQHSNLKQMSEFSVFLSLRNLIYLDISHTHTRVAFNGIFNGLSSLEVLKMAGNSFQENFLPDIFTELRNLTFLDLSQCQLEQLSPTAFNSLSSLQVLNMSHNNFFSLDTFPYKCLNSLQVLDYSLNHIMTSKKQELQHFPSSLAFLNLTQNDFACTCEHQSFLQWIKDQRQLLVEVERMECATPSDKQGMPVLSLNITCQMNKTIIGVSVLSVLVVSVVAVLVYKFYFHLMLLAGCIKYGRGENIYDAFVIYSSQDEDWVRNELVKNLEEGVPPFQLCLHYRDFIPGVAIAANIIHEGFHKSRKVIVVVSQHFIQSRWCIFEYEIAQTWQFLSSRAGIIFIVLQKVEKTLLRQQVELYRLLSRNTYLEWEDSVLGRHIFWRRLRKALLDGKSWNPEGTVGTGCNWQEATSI
T1 sequence (Q9Y6Y9 17-160 partner limits assumed): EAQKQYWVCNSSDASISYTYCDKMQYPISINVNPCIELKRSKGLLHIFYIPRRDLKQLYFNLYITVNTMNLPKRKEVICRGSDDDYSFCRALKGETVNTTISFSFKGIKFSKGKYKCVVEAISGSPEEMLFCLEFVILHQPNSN

## CCC(=O)C(C[C@H](C)N(C)C)(c1ccccc1)c1ccccc1 [(+)-methadone]
[1]
  TLR4 mRNA in lumbar dorsal spinal cord: significant elevation

## C=CCN1CC[C@]23c4c5ccc(O)c4O[C@H]2C(=O)CC[C@]3(O)[C@H]1C5 [(+)-naloxone, (+)-Naloxone]
[2]; 1 μM with 100 ng/mL LPS
  LPS-induced elevation in mRNA for CD11b: abolished
  LPS-induced elevation in mRNA for IL-6: abolished
  LPS-induced elevation in mRNA for interleukin (IL)-1b: abolished
[3]; 20 μg intrathecal with subcutaneous morphine 4 mg/kg
  morphine analgesia: significantly potentiated; also recorded: potentiation
[3]; [9]
  morphine analgesia: significant potentiation of analgesia
[4]; 30 min
  reversal of CCI-induced allodynia: not significantly
[4]; 90 min
  reversal of CCI-induced allodynia: reversed CCI-induced allodynia; also recorded: reversed established allodynia; also recorded: acutely reverses
[4]; 100 mg/kg subcutaneous, 14 days after CCI
  ipsilateral and contralateral mechanical allodynia: reliable attenuation
[4]
  reversal of neuropathic pain: reverses neuropathic pain
[5]; [10]
  development of morphine-induced hyperalgesia: blocked the development of morphine-induced hyperalgesia
  development of tolerance: attenuated the development of tolerance
  morphine analgesia: potentiated
  weight gain: enabled normal weight gain
[5]; withdrawal precipitated by 100 mg/kg (−)-naltrexone on day 7
  withdrawal behaviors: reduced withdrawal behaviors
[6]
  CD11b/c expression: reliable suppression
  GFAP expression in ipsilateral or contralateral dorsal horns: neither (+)-nor (−)-naloxone affected
[7]
  M3G induced TLR4 signaling: attenuation
  antagonism of LPS activity at TLR4: significant non-competitive antagonism; also recorded: non-competitively antagonizes
  effect on basal unstimulated SEAP expression: no substantial effect
  increase in the EC50 of LPS: 3 fold
  morphine induced TLR4 signaling: attenuation
  reduction in the Emax of LPS: 40%
[8]; morphine 100 μM
  morphine-induced Akt1 response: blocked
[8]; preincubation 1mM prior to LPS 7.5 μg/mL
  LPS-induced Akt1 response: significantly attenuated

## O=C1CC[C@]2(O)[C@@H]3Cc4ccc(O)c5c4[C@]2(CCN3CC2CC2)[C@@H]1O5 [(+)-naltrexone]
[3]; [9]
  morphine analgesia: significant potentiation of analgesia
[4]
  reversal of established CCI-induced allodynia: reversed established CCI-induced allodynia

## CN1CC[C@]23c4c5ccc(O[C@@H]6O[C@H](C(=O)O)[C@@H](O)[C@H](O)[C@H]6O)c4O[C@H]2[C@@H](O)C=C[C@H]3[C@H]1C5 [M3G, morphine-3-glucuronide, reference compound]
[7]
  TLR4 agonist activity: showed TLR4 agonist activity

## CN1CC[C@]23c4c5ccc(O)c4O[C@H]2[C@@H](O[C@@H]2O[C@H](C(=O)O)[C@@H](O)[C@H](O)[C@H]2O)C=C[C@H]3[C@H]1C5 [M6G, morphine-6-glucuronide, reference compound]
[7]
  TLR4 agonist activity: not found to have any significant TLR4 agonist activity

## CCC(=O)C(CC(C)N(C)C)(c1ccccc1)c1ccccc1 (centres unmarked) [methadone, reference compound]
[7]
  TLR4 agonist activity: TLR4 agonists

## C=CCN1CC[C@]23c4c5ccc(O)c4O[C@H]2C(=O)CC[C@@]3(O)[C@H]1C5 [naloxone, reference compound]
[4]; chronic intrathecal osmotic minipump, 20 or 60 ug/hr, 4-96 hr
  ipsilateral and contralateral allodynia: attenuation

## COc1ccc2c3c1O[C@H]1C(=O)CC[C@@]4(O)[C@@H](C2)N(C)CC[C@]314 [oxycodone, reference compound]
[7]
  TLR4 agonist activity: TLR4 agonists

## CCOC(=O)C1(c2ccccc2)CCN(C)CC1 [pethadine/meperidine, meperidine, reference compound]
[7]
  TLR4 agonist activity: TLR4 agonists

## (−)-methadone
[1]
  TLR4 mRNA in lumbar dorsal spinal cord: significant elevation

## (−)-naloxone [reference compound]
[4]
  reversal of neuropathic pain: reverses neuropathic pain
[6]
  CD11b/c expression: reliable suppression
  GFAP expression in ipsilateral or contralateral dorsal horns: neither (+)-nor (−)-naloxone affected

## (−)-naltrexone [reference compound]
[4]
  reversal of established CCI-induced allodynia: reversed established CCI-induced allodynia

## Lipopolysaccharide [LPS, reference compound]
[2]; 100 ng/mL
  mRNA for CD11b: elevations
  mRNA for IL-6: elevations
  mRNA for interleukin (IL)-1b: elevations
[7]
  EC50 (SEAP expression): 0.21 ng/mL
  Emax (SEAP expression): 40,956 arbitrary fluorescence units
[8]
  clearance of GFP-Akt1 from the cytosol: robust, rapid clearance
